In publication PMC6245189 (Molecules, 2008):

Legend:
[1] = molecular target: T1, bovine testes hyaluronidase (BTH) (Bos taurus, UniProt Q2YDK3); assay: Morgan-Elson assay at pH […]; format: biochemical; conditions: read-out: IC50 [μM] / 3.5
T1 sequence (Q2YDK3 36-553): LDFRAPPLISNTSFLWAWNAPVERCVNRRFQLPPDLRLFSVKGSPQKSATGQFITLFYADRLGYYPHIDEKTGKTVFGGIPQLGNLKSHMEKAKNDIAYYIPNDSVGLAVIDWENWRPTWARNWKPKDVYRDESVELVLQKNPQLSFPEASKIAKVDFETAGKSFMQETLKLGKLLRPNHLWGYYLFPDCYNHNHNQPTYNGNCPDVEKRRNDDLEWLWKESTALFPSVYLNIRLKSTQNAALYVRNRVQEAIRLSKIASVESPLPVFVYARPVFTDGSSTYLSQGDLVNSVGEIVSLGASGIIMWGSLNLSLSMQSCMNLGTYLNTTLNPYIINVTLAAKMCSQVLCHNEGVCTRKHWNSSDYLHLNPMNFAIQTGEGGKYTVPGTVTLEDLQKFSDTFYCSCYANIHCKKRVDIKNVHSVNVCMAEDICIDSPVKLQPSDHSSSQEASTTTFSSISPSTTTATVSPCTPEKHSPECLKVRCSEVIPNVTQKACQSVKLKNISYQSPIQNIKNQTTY

[2] = molecular target: T1, bovine testes hyaluronidase (BTH); assay: stains-all assay at pH […] and Morgan-Elson assay at pH […]; format: biochemical; conditions: read-out: IC50 [μM] / pH7

SMILES	IC50 [1] [µM]	IC50 [2] [µM]
CCCCCCCCCCCCCCCC(=O)OC[C@H](O)[C@H]1OC(=O)C(O)=C1O [6-palmitoyl-L-ascorbic acid]	8	–
Oc1ccc(-c2[nH]c3ccccc3c2-c2ccccc2)cc1 [compound 12, 4-(3-Phenyl-1H-indol-2-yl)phenol]	–	107
